Reference: US20110237533A1, “NOVEL POLYPHENOL COMPOUND” (priority 2008, published 2011)
Where two headings read alike, the source gives them in different places.

Biological target: T1, pancreatic lipase derived from swine (Sus scrofa, UniProt P00591)
T1 construct: purchased Sigma Ltd
T1 sequence (P00591 1-450): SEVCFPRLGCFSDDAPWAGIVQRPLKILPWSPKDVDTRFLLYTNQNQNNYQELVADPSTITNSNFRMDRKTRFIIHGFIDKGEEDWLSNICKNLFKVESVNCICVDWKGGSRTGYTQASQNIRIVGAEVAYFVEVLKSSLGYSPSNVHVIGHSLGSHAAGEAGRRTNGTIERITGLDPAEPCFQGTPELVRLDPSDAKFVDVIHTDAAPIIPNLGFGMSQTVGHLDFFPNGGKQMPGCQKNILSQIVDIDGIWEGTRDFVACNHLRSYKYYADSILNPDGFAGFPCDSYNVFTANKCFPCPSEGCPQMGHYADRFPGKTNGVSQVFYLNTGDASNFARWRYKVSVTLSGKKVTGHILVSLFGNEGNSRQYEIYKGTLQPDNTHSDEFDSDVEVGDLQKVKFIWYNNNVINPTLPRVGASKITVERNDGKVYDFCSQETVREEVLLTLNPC
Test: lipase inhibitory test (4-MUO substrate, fluorescence)
Format: biochemical
Settings: read-out: lipase inhibitory activity (%)

Row | SMILES | inhibition at 250 µM (sample concentration 250 μM, 4-MUO substrate, 37° C., 30 minutes) [%] | inhibition at 250 µM [%]
1 | O=C(O)c1cc(O)c(O)c(O)c1 [gallic acid] | 50 | –
2 | O=c1c(O)c(-c2ccc(O)c(O)c2)oc2cc(O)cc(O)c12 [quercetin] | – | 64.3
